In ChEMBL document CHEMBL1144706, “Antineoplastic agents. 558. Ampelocissus sp. cancer cell growth inhibitory constituents” (2008) one finds GI50 data, which are given here for three molecules.

Structures are written as SMILES. ≈ marks a conversion by molar mass, not a printed value.

Format in all cases: functional
Test [1] has as its system BXPC-3. The test can be described thus: Growth inhibition of human BXPC3 cells.
For test [2], the system named is KM-20L2. As to the kind of experiment: Growth inhibition of human KM20L2 cells.
For test [3], the system named is DU-145. The test can be described thus: Growth inhibition of human DU145 cells.
The subject of test [4] is NCI-H460. The test can be described thus: Growth inhibition of human NCI-H460 cells.
Test [5] concerns MCF7. The test can be described thus: Growth inhibition of human MCF7 cells.
Test [6] relates to SF-268. The test can be described thus: Growth inhibition of human SF268 cells.
Test [7] deals with P388. The test can be described thus: Growth inhibition of mouse P388 cells.

By GI50 is commonly meant the concentration that inhibits growth by half. Low values mean more potent growth inhibition, high ones less potent growth inhibition. Turning to `Cc1c(O)c(C=O)c(O)c(C(=O)CCc2ccccc2)c1O`, the 50% growth inhibitory concentration (GI50) in test [1] amounted to 0.3 mg/L (≈ 0.999 µM); in test [2], 0.36 mg/L (≈ 1.2 µM); in test [3], 0.33 mg/L (≈ 1.1 µM); in test [4] it was 0.52 mg/L (≈ 1.73 µM); in test [5], 0.3 mg/L (≈ 0.999 µM); in test [6] it was 0.55 mg/L (≈ 1.83 µM).
With `CCCCCCCCCCCC[C@@H](O)[C@H]1CC[C@H]([C@@H](C[C@H](O)CCCCCCCCCC(O)CCC2=CC(C)OC2=O)OC(C)=O)O1` (some centres undefined) [UVARIBONIN], the 50% growth inhibitory concentration (GI50) amounted to 1.3 mg/L (≈ 1.95 µM) in test [1]; 0.0013 mg/L (≈ 0.00195 µM) in test [2]; 0.0093 mg/L (≈ 0.0139 µM) in test [3]; 1 mg/L (≈ 1.5 µM) in test [4]; 0.0022 mg/L (≈ 0.0033 µM) in test [5]; 1.4 mg/L (≈ 2.1 µM) in test [6].
Take `CCCCCCCCCCCC[C@@H](O)[C@H]1CC[C@H]([C@@H](C[C@H](O)CCCCCCCCCCCCC2=CC(C)OC2=O)OC(C)=O)O1` (some centres undefined): the GI50 came out at 7.3 mg/L (≈ 11.2 µM) in test [1]; 0.034 mg/L (≈ 0.0522 µM) in test [2]; 0.0065 mg/L (≈ 0.00998 µM) in test [3]; 0.2 mg/L (≈ 0.307 µM) in test [4]; 0.12 mg/L (≈ 0.184 µM) in test [5]; 0.014 mg/L (≈ 0.0215 µM) in test [7]. This molecule registered a GI50 in test [6] of 11.9 mg/L (≈ 18.3 µM).
